These results are taken from patent US12358948B2, “Neurotensinergic agonists and methods of using same preventing or treating pain” (priority 2019, dated 2025).

The target of experiment [1] is T1, hNTS1 receptor (Homo sapiens, UniProt P30989).
T1 construct: membranes prepared from them
Kind of experiment: Competitive radioligand binding assay on the hNTS1 receptor. The following applies: displacement of 125I-[Tyr3]-NT, membranes of CHO-K1 cells expressing hNTS1; read-out: IC50 NTS1. As to the method:
(§1) CHO-K1 (Chinese Hamster Ovary) cells stably expressing hNTS1 and 1321N1 cells stably expressing hNTS2 (ES-690-C and ES-691-C from PerkinElmer, Montréal, Canada) were cultured respectively in Ham's F12 and in DMEM culture media. Culture media were supplemented with 10% FBS, 100 U/mL penicillin, 100 μg/mL streptomycin, 20 mM HEPES, and 0.4 mg/mL G418 at 37° C. in a humidified chamber at 5% CO2.
(§2) The cells expressing hNTS1 were frozen when they reached 80% confluency. They were scrapped off the dish with 10 mM Tris buffer, 1 mM EDTA, pH 7.5 and centrifuged at 15,000 g for 5 min at 4° C. The pellet was then re-suspended in 1 mL binding buffer. The cells expressing hNTS2 were also frozen when they reached 80% confluency. They were scraped off the dish with PBS, 0.5 mM EDTA, pH 7.5 and sonicated for 5 minutes (pulse 30 s/5 s off, amplitude 40%). They were ultracentrifuged at 100 000 g for 60 minutes at 4° C. The pellet was re-suspended in 1 mL freezing buffer (PBS, glycerol, 0.5 mM EDTA), sonicated for 1 minute (pulse 30 s/5 s off, amplitude 50%) and further diluted in binding buffer. Competitive radioligand binding experiments were performed by incubating 15 μg of cell membranes expressing the hNTS1 receptor with […] of ^125I-[Tyr^3]-NT (2200 Ci/mmol) or 50 μg of cell membranes expressing the hNTS2 receptor with […] of ^125I-[Tyr^3]-NT in binding buffer (50 mM Tris-HCl, pH 7.5, 0.2% BSA) in the presence of increasing concentrations of analogues ranging from 10^−11 to 10^−4 M for 60 min at 25° C. After incubation, the binding reaction mixture was transferred in PEI-coated 96-well filter plates (glass fiber filters GF/B, Millipore, Billerica, MA). Reaction was terminated by filtration, and plates were washed three times with 200 μL ice-cold binding buffer. Glass filters were then counted using a γ-counter (2470 Wizard2, PerkinElmer, Mississauga, Ontario, Canada). Non-specific binding was measured in the presence of 10^−5 M unlabeled NT (8-13) and represented less than 5% of total binding. IC50 values were determined from competition curves as the unlabeled ligand concentration inhibiting 50% of ^125I-[Tyr^3]-NT-specific binding.
(§3) Competitive radioligand binding data were plotted using the nonlinear regression One-site-Fit Log(IC50) and represented the mean±SEM of at least three independent experiments in triplicates.

Experiment [2] has as its target T2, hNTS2 receptor (Homo sapiens, UniProt O95665).
T2 construct: membranes prepared from them
Kind of experiment: Competitive radioligand binding assay on the hNTS2 receptor. The following applies: for IC50: displacement of 125I-[Tyr3]-NT, membranes of 1321N1 cells expressing hNTS2, read-out: IC50 NTS2 (converted); for Selectivity: ratio IC50 for NTS1 : IC50 for NTS2. As for the experimental part:
as §1, §2, §3
For orientation: Loss of bound radioactivity is the signal in a displacement assay; it reports binding, not function.

Where a SMILES comes first, the peptide text is derived from it. Bridges are numbered along the chain shown (N, C = ends). [ ]: non-standard residue; d: D form. ξ: configuration not given here. dAllylGly = C=CC[C@@H](N)C(=O)O; Cha = N[C@@H](CC1CCCCC1)C(=O)O; Ile(3ξ) = CCC(C)[C@H](N)C(=O)O; AllylGly = C=CC[C@H](N)C(=O)O; Chg = N[C@H](C(=O)O)C1CCCCC1; Tle = CC(C)(C)[C@H](N)C(=O)O; Nle = CCCC[C@H](N)C(=O)O; Orn = NCCC[C@H](N)C(=O)O; Nva = CCC[C@H](N)C(=O)O; Dap = NC[C@H](N)C(=O)O A value given as a limit tells only on which side of the number the result lay.

T2 sequence (O95665 whole entry): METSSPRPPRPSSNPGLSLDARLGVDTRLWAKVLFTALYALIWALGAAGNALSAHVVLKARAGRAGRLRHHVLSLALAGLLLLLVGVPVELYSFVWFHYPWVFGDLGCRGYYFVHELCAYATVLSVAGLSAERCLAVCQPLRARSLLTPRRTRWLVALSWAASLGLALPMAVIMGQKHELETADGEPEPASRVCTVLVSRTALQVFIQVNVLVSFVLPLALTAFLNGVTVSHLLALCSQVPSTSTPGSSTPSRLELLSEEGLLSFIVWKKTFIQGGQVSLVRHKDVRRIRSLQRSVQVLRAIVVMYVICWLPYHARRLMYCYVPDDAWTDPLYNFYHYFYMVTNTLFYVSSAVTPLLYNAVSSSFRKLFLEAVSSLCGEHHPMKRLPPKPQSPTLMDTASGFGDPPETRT
T1 sequence (P30989 whole entry): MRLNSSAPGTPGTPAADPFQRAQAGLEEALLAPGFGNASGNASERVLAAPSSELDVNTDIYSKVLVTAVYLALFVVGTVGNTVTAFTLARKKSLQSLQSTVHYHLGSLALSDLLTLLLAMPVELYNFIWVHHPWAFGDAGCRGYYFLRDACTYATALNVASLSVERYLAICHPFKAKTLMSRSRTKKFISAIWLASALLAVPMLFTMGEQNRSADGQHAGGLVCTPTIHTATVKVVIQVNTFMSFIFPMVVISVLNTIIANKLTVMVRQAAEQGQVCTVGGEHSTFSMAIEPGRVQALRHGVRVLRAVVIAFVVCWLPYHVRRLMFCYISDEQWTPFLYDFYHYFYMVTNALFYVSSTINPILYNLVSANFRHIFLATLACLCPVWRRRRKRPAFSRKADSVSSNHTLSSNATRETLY

Regarding `CC(C)C[C@H](NC(=O)[C@H](Cc1ccc(O)cc1)NC(=O)C1(C)CC=CCCC[C@H](N)C(=O)N[C@@H](CCCCN)C(=O)N[C@@H](CCCCN)C(=O)N1)C(=O)O` (single isomer, unassigned) [compound 92, c[G(All)KKG*(alpha-Me-(4-Pentenyl))]YL], in experiment [1], the IC50 (usually the midpoint of a concentration-inhibition curve) is greater than 100 µM. For the same compound, in experiment [2], the IC50 is 0.511 µM and the Selectivity is recorded as greater than 196.

With `CCC(C)[C@H](NC(=O)[C@H](Cc1ccc(O)cc1)NC(=O)[C@@H]1CC=CC[C@H](N)C(=O)N[C@@H](CCCCN)C(=O)N[C@@H](CCCCN)C(=O)N1)C(=O)O` (some centres unmarked) [compound 14, c[G(All)KKG(All)]YI] (H-[AllylGly]KK[AllylGly]Y[Ile(3ξ)]-OH; staple 1-4), the IC50 in experiment [1] turned out to be 100 µM. In experiment [2], the IC50 is 10.2 µM and the Selectivity came out at 10.

For the compound `CC(=O)Oc1ccc(C[C@H](NC(=O)[C@@H]2CC=CC[C@H](N)C(=O)N[C@@H](CCCCN)C(=O)N[C@@H](CCCCN)C(=O)N2)C(=O)N[C@@H](CC(C)C)C(=O)O)cc1` [compound 15, c[G(All)KKG(All)]Y(OAc)L] (H-[AllylGly]KK[AllylGly]Y(Ac)L-OH; staple 1-4), in experiment [1], the IC50 was greater than 100 µM.

Take `CC(C)C[C@H](NC(=O)[C@H](Cc1c[nH]c2ccccc12)NC(=O)[C@@H]1CC=CC[C@H](N)C(=O)N[C@@H](CCCCN)C(=O)N[C@@H](CCCCN)C(=O)N1)C(=O)O` [compound 16, c[G(All)KKG(All)]WL] (H-[AllylGly]KK[AllylGly]WL-OH; staple 1-4): the IC50 in experiment [1] was greater than 100 µM; in experiment [2], 0.0536 µM. In addition, the Selectivity in experiment [2] is 1865.

As to `CC(C)C[C@H](NC(=O)[C@H](CCCCN)NC(=O)[C@@H]1CC=CC[C@H](N)C(=O)N[C@@H](CCCCN)C(=O)N[C@@H](CCCCN)C(=O)N1)C(=O)O` [compound 17, c[G(All)KKG(All)]KL] (H-[AllylGly]KK[AllylGly]KL-OH; staple 1-4), the IC50 in experiment [1] was greater than 100 µM. Besides, in experiment [2], the IC50 was 1.1 µM and the Selectivity came out at 90.9.

Turning to `CC(C)C[C@H](NC(=O)[C@@H](Cc1ccc(O)cc1)NC(=O)[C@@H]1CC=CC[C@H](N)C(=O)N[C@@H](CCCCN)C(=O)N[C@@H](CCCCN)C(=O)N1)C(=O)O` [compound 21, c[G(All)KKG(All)]Y*L] (H-[AllylGly]KK[AllylGly][dY]L-OH; staple 1-4), the values for the concentration for half-maximal inhibition (IC50) in experiment [1] and in experiment [2] were greater than 100 µM and 4.7 µM, respectively.

Take `CC(C)(C)[C@H](NC(=O)[C@H](Cc1ccc(O)cc1)NC(=O)[C@@H]1CC=CC[C@H](N)C(=O)N[C@@H](CCCCN)C(=O)N[C@@H](CCCCN)C(=O)N1)C(=O)O` [compound 27, c[G(All)KKG(All)]YTle] (H-[AllylGly]KK[AllylGly]Y[Tle]-OH; staple 1-4): in experiment [1], the IC50 was greater than 100 µM. In experiment [2], the IC50 was 77.8 µM and the Selectivity is given as greater than 1.3.

As for `CCCC[C@H](NC(=O)[C@H](Cc1ccc(O)cc1)NC(=O)[C@@H]1CC=CC[C@H](N)C(=O)N[C@@H](CCCCN)C(=O)N[C@@H](CCCCN)C(=O)N1)C(=O)O` [compound 28, c[G(All)KKG(All)]YNle] (H-[AllylGly]KK[AllylGly]Y[Nle]-OH; staple 1-4), the IC50 is greater than 100 µM in experiment [1] and 0.381 µM in experiment [2]. In addition, the Selectivity in experiment [2] was greater than 262.

As to `CCC[C@H](NC(=O)[C@H](Cc1ccc(O)cc1)NC(=O)[C@@H]1CC=CC[C@H](N)C(=O)N[C@@H](CCCCN)C(=O)N[C@@H](CCCCN)C(=O)N1)C(=O)O` [compound 29, c[G(All)KKG(All)]YNva] (H-[AllylGly]KK[AllylGly]Y[Nva]-OH; staple 1-4), in experiment [1], the half-maximal inhibitory concentration (IC50) was greater than 100 µM. Besides, in experiment [2], the IC50 was 3.3 µM and the Selectivity is recorded as greater than 30.3.

On to `NCCCC[C@@H]1NC(=O)[C@H](CCCCN)NC(=O)[C@@H](N)CC=CC[C@@H](C(=O)N[C@@H](Cc2ccc(O)cc2)C(=O)N[C@H](C(=O)O)C2CCCCC2)NC1=O` [compound 30, c[G(All)KKG(All)]YChG] (H-[AllylGly]KK[AllylGly]Y[Chg]-OH; staple 1-4), for which the 50% inhibitory concentration (IC50) was greater than 100 µM in experiment [1] and 0.955 µM in experiment [2]. In addition, the Selectivity in experiment [2] is greater than 104.

As for `NCCCC[C@@H]1NC(=O)[C@H](CCCCN)NC(=O)[C@@H](N)CC=CC[C@@H](C(=O)N[C@@H](Cc2ccc(O)cc2)C(=O)N[C@@H](CC2CCCCC2)C(=O)O)NC1=O` [compound 31, c[G(All)KKG(All)]YA(Ch)] (H-[AllylGly]KK[AllylGly]Y[Cha]-OH; staple 1-4), the IC50 in experiment [1] is greater than 100 µM. For the same compound, in experiment [2], the concentration for half-maximal inhibition (IC50) is 0.00867 µM and the Selectivity is reported as greater than 11534.

With `NCCCC[C@@H]1NC(=O)[C@H](CCCCN)NC(=O)[C@@H](N)CC=CC[C@@H](C(=O)N[C@@H](Cc2ccc(O)cc2)C(=O)N[C@@H](Cc2ccccc2)C(=O)O)NC1=O` [compound 32, c[G(All)KKG(All)]YF] (H-[AllylGly]KK[AllylGly]YF-OH; staple 1-4), the figures for the IC50 in experiment [1] and in experiment [2] were greater than 100 µM and 0.453 µM, respectively. For the same compound, the Selectivity in experiment [2] was greater than 220.

For the compound `CC(C)[C@H](NC(=O)[C@H](Cc1ccc(O)cc1)NC(=O)[C@@H]1CC=CC[C@H](N)C(=O)N[C@@H](CCCCN)C(=O)N[C@@H](CCCCN)C(=O)N1)C(=O)O` [compound 33, c[G(All)KKG(All)]YV] (H-[AllylGly]KK[AllylGly]YV-OH; staple 1-4), in experiment [1], the IC50 was greater than 100 µM. In experiment [2], the IC50 is 79.8 µM and the Selectivity is reported as greater than 1.25.

Regarding `CC(C)C[C@@H](NC(=O)[C@H](Cc1ccc(O)cc1)NC(=O)[C@@H]1CC=CC[C@H](N)C(=O)N[C@@H](CCCCN)C(=O)N[C@@H](CCCCN)C(=O)N1)C(=O)O` [compound 38, c[G(All)KKG(All)]YL*] (H-[AllylGly]KK[AllylGly]Y[dL]-OH; staple 1-4), the IC50 in experiment [1] was greater than 100 µM. In addition, in experiment [2], the IC50 was 240 µM and the Selectivity is greater than 2.4.

Take `CC(C)C[C@H](NC(=O)[C@H](Cc1ccc(O)cc1)NC(=O)[C@H]1CC=CC[C@H](N)C(=O)N[C@@H](CCCCN)C(=O)N[C@@H](CCCCN)C(=O)N1)C(=O)O` [compound 40, c[G(All)KKG*(All)]YL] (H-[AllylGly]KK[dAllylGly]YL-OH; staple 1-4): in experiment [1], the IC50 is greater than 100 µM. Further, in experiment [2], the IC50 was 1.2 µM and the Selectivity is greater than 85.

On to `CC(C)C[C@H](NC(=O)[C@H](Cc1ccc(O)cc1)NC(=O)[C@@H]1CC=CC[C@@H](N)C(=O)N[C@@H](CCCCN)C(=O)N[C@@H](CCCCN)C(=O)N1)C(=O)O` [compound 41, c[G*(All)KKG(All)]YL] (H-[dAllylGly]KK[AllylGly]YL-OH; staple 1-4), for which, in experiment [1], the IC50 is greater than 100 µM. In addition, in experiment [2], the 50% inhibitory concentration (IC50) is 0.113 µM and the Selectivity is greater than 889.

Take `CC(C)C[C@H](NC(=O)[C@H](Cc1ccc(O)cc1)NC(=O)[C@@H]1CNC(=O)CC[C@H](N)C(=O)N[C@@H](CCCCN)C(=O)N[C@@H](CCCCN)C(=O)N1)C(=O)O` [compound 102, c[EKKDap]YL] (H-EKK[Dap]YL-OH; lactam 1-4): the IC50 in experiment [1] is greater than 100 µM.

For `CC(C)C[C@H](NC(=O)[C@H](Cc1ccc(O)cc1)NC(=O)[C@@H]1CCCNC(=O)CC[C@H](N)C(=O)N[C@@H](CCCCN)C(=O)N[C@@H](CCCCN)C(=O)N1)C(=O)O` [compound 106, c[EKKOrn]YL] (H-EKK[Orn]YL-OH; lactam 1-4), in experiment [1], the IC50 is greater than 100 µM.

For the compound `CC(C)C[C@H](NC(=O)[C@H](Cc1ccc(O)cc1)NC(=O)[C@@H]1CCCNC(=O)C[C@H](N)C(=O)N[C@@H](CCCCN)C(=O)N[C@@H](CCCCN)C(=O)N1)C(=O)O` [compound 107, c[DKKOrn]YL] (H-DKK[Orn]YL-OH; lactam 1-4), in experiment [1], the IC50 is greater than 100 µM.

As for `CC(C)C[C@H](NC(=O)[C@H](Cc1ccc(O)cc1)NC(=O)[C@@H]1CCCCNC(=O)CC[C@H](N)C(=O)N[C@@H](CCCCN)C(=O)N[C@@H](CCCCN)C(=O)N1)C(=O)O` [compound 108, c[EKKK]YL] (H-EKKKYL-OH; lactam 1-4), in experiment [1], the IC50 is greater than 100 µM.

Take `CC(C)C[C@H](NC(=O)[C@H](Cc1ccc(O)cc1)NC(=O)[C@@H]1CCCCNC(=O)C[C@H](N)C(=O)N[C@@H](CCCCN)C(=O)N[C@@H](CCCCN)C(=O)N1)C(=O)O` [compound 109, c[DKKK]YL] (H-DKKKYL-OH; lactam 1-4): in experiment [1], the IC50 is greater than 100 µM.
